In ChEMBL document CHEMBL1201862, “PubChem BioAssay data set” (2004):
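The compound was tested at five concentrations on cells cultured in 96-well plates, with a 48-hour exposure period. The concentration for 50% growth inhibition is given as GI50.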 The source made the active and inactive calls. Cut-off read from the data, not from the text of the source: active = GI50 up to about 1.1 µM and inactive = higher.

Tests used:
Test in all cases: NCI anticancer screen, dose series, 48 h
SR = test system: SR
BT-549 = test system: BT-549
NCI-H226 = test system: NCI-H226
786-0 = test system: 786-0
HL-60 = test system: HL-60
UACC-62 = test system: UACC-62
NCI-H23 = test system: NCI-H23
HT-29 = test system: HT-29
OVCAR-3 = test system: OVCAR-3
CAKI-1 = test system: CAKI-1
SK-MEL-2 = test system: SK-MEL-2
MOLT-4 = test system: MOLT-4
SN12C = test system: SN12C
SF-268 = test system: SF-268
SK-OV-3 = test system: SK-OV-3
T47D = test system: T47D
HOP-62 = test system: HOP-62
KM12 = test system: KM12
U-251 = test system: U-251
HCT-116 = test system: HCT-116
RXF 393 = test system: RXF 393
HOP-92 = test system: HOP-92
UACC-257 = test system: UACC-257
A498 = test system: A498
SF-539 = test system: SF-539
SNB-75 = test system: SNB-75
MCF7 = test system: MCF7
NCI/ADR-RES = test system: NCI/ADR-RES
NCI-H460 = test system: NCI-H460
CCRF-CEM = test system: CCRF-CEM
TK-10 = test system: TK-10
OVCAR-5 = test system: OVCAR-5
SK-MEL-28 = test system: SK-MEL-28
HCT-15 = test system: HCT-15
MDA-MB-231 = test system: MDA-MB-231
LOX IMVI = test system: LOX IMVI
DU-145 = test system: DU-145
UO-31 = test system: UO-31
HCC 2998 = test system: HCC 2998
EKVX = test system: EKVX
OVCAR-8 = test system: OVCAR-8
SNB-19 = test system: SNB-19
SK-MEL-5 = test system: SK-MEL-5
SF-295 = test system: SF-295
SW-620 = test system: SW-620
Hs-578T = test system: Hs-578T
IGROV-1 = test system: IGROV-1
ACHN = test system: ACHN
RPMI-8226 = test system: RPMI-8226
Malme-3M = test system: Malme-3M
OVCAR-4 = test system: OVCAR-4
K562 = test system: K562
A549 = test system: A549
COLO 205 = test system: COLO 205
MDA-MB-435 = test system: MDA-MB-435
NCI-H522 = test system: NCI-H522
PC-3 = test system: PC-3
M14 = test system: M14
MDA-N = test system: MDA-N

**Q.** Which GI50 (SR) does the source give for `COc1cc(/C=C\c2nnc(/C=C\c3ccc(O)c(OC)c3)s2)ccc1O` here?
**A.** 1240 nM (inactive)

**Q.** And the GI50 (BT-549)?
**A.** 1890 nM (inactive)

**Q.** What about the GI50 (NCI-H226) of the same molecule?
**A.** 7280 nM (inactive)

**Q.** What about the GI50 (786-0) of the same molecule?
**A.** 3850 nM (inactive)

**Q.** And the GI50 (HL-60)?
**A.** 1640 nM (inactive)

**Q.** And the GI50 (UACC-62)?
**A.** 2480 nM (inactive)

**Q.** What about the GI50 (NCI-H23) of the same molecule?
**A.** 2450 nM (inactive)

**Q.** What about the GI50 (HT-29) of the same molecule?
**A.** 7310 nM (inactive)

**Q.** And the GI50 (OVCAR-3)?
**A.** 1910 nM (inactive)

**Q.** What about the GI50 (CAKI-1) of the same molecule?
**A.** 4620 nM (inactive)

**Q.** And the GI50 (SK-MEL-2)?
**A.** 3610 nM (inactive)

**Q.** And the GI50 (MOLT-4)?
**A.** 1740 nM (inactive)

**Q.** And the GI50 (SN12C)?
**A.** 4310 nM (inactive)

**Q.** What about the GI50 (SF-268) of the same molecule?
**A.** 4060 nM (inactive)

**Q.** What about the GI50 (SK-OV-3) of the same molecule?
**A.** 4410 nM (inactive)

**Q.** And the GI50 (T47D)?
**A.** 2120 nM (inactive)

**Q.** And the GI50 (HOP-62)?
**A.** 5650 nM (inactive)

**Q.** And the GI50 (KM12)?
**A.** 2200 nM (inactive)

**Q.** What about the GI50 (U-251) of the same molecule?
**A.** 3060 nM (inactive)

**Q.** And the GI50 (HCT-116)?
**A.** 2360 nM (inactive)

**Q.** And the GI50 (RXF 393)?
**A.** 1160 nM (inactive)

**Q.** And the GI50 (HOP-92)?
**A.** 4790 nM (inactive)

**Q.** And the GI50 (UACC-257)?
**A.** 2160 nM (inactive)

**Q.** And the GI50 (A498)?
**A.** 2270 nM (inactive)

**Q.** What about the GI50 (SF-539) of the same molecule?
**A.** 2440 nM (inactive)

**Q.** And the GI50 (SNB-75)?
**A.** 2330 nM (inactive)

**Q.** And the GI50 (MCF7)?
**A.** 690 nM (active)

**Q.** What about the GI50 (NCI/ADR-RES) of the same molecule?
**A.** 1600 nM (inactive)

**Q.** And the GI50 (NCI-H460)?
**A.** 3090 nM (inactive)

**Q.** What about the GI50 (CCRF-CEM) of the same molecule?
**A.** 2180 nM (inactive)

**Q.** What about the GI50 (TK-10) of the same molecule?
**A.** 4890 nM (inactive)

**Q.** And the GI50 (OVCAR-5)?
**A.** 22200 nM (inactive)

**Q.** What about the GI50 (SK-MEL-28) of the same molecule?
**A.** 5350 nM (inactive)

**Q.** And the GI50 (HCT-15)?
**A.** 1490 nM

**Q.** And the GI50 (MDA-MB-231)?
**A.** 4940 nM (inactive)

**Q.** What about the GI50 (LOX IMVI) of the same molecule?
**A.** 2590 nM (inactive)

**Q.** What about the GI50 (DU-145) of the same molecule?
**A.** 2320 nM (inactive)

**Q.** And the GI50 (UO-31)?
**A.** 3470 nM (inactive)

**Q.** What about the GI50 (HCC 2998) of the same molecule?
**A.** 3480 nM (inactive)

**Q.** What about the GI50 (EKVX) of the same molecule?
**A.** 3740 nM (inactive)

**Q.** And the GI50 (OVCAR-8)?
**A.** 3780 nM (inactive)

**Q.** What about the GI50 (SNB-19) of the same molecule?
**A.** 4580 nM (inactive)

**Q.** And the GI50 (SK-MEL-5)?
**A.** 1160 nM (inactive)

**Q.** What about the GI50 (SF-295) of the same molecule?
**A.** 3480 nM (inactive)

**Q.** What about the GI50 (SW-620) of the same molecule?
**A.** 1740 nM (inactive)

**Q.** And the GI50 (Hs-578T)?
**A.** 3010 nM (inactive)

**Q.** And the GI50 (IGROV-1)?
**A.** 3780 nM (inactive)

**Q.** And the GI50 (ACHN)?
**A.** 3610 nM (inactive)

**Q.** And the GI50 (RPMI-8226)?
**A.** 1980 nM (inactive)

**Q.** And the GI50 (Malme-3M)?
**A.** 2110 nM (inactive)

**Q.** And the GI50 (OVCAR-4)?
**A.** 2610 nM (inactive)

**Q.** And the GI50 (K562)?
**A.** 1770 nM (inactive)

**Q.** And the GI50 (A549)?
**A.** 3130 nM (inactive)

**Q.** What about the GI50 (COLO 205) of the same molecule?
**A.** 13800 nM (inactive)

**Q.** What about the GI50 (MDA-MB-435) of the same molecule?
**A.** 495 nM (active)

**Q.** What about the GI50 (NCI-H522) of the same molecule?
**A.** 1670 nM (inactive)

**Q.** And the GI50 (PC-3)?
**A.** 3940 nM (inactive)

**Q.** What about the GI50 (M14) of the same molecule?
**A.** 2110 nM (inactive)

**Q.** And the GI50 (MDA-N)?
**A.** 689 nM (active)
